Results reported in patent US4588731A, “Derivatives of isoxazolo[4,5-c]quinoline(2H)-3-one and method of preparation and use as anxiolytic agents” (Roussel Uclaf, priority 1985, dated 1986).

Assays:
benzodiazepine receptors = assay: Affinity for benzodiazepine receptors (3H diazepam displacement, rat brain cortex membranes); assay type: binding, rats; details: 3H diazepam 10^-9 M, 30 minutes at 0° C, read-out: C.I. 50 (concentration inhibiting 50% of the specific bond of 3H diazepam)
Protocol: A. Affinity for benzodiazepine receptors
The technique was inspired by that of Mohler et al [Science, Vol. 198 p. 849-851 (1977] in which the cortex from the brains of male rats weighing on average 150 g were homogenized to a twentieth (weight/volume) in 0.32M sucrose. After centrifuging the homogenate at 1000 g for 10 minutes at 0° C., the supernatant was centrifuged at 30,000 g for 20 minutes at 4° C. The residue was suspended in 20 volumes of Tris buffer HCl 50 mM pH 7.4 and centrifuged at 30,000 g for 20 minutes at 4° C. The new residue obtained was placed in 50 ml of Krebs Tris buffer HCl pH 7.4
2 ml of the suspension in the presence of ^3 H diazepam at a concentration of 10^-9 M were then incubated for 30 minutes at 0° C: (i) alone, (ii) with increasing concentrations of the product to be tested or, (iii) to determine the non-specific fixation, with non-radioactive diazepam at a concentration of 10^-6 M. The incubated suspension were filtered on Whatman GF/C and the filters were washed twice with 5 ml of Krebs Tris buffer HCl pH 7.4 at 0° C. The radioactivity of the filters was measured by liquid scintillation and the activity of the product was expressed in C.I.50, the concentration inhibiting 50% of the specific bond of ^3 H diazepam.

mice = assay: Acute toxicity, oral route in mice (LD0); assay type: in vivo
Protocol: The lethal doses LD0 of the different compounds tested after administration by oral route in mice were evaluated. The maximum dose not provoking any mortality in 8 days was called LD0 and the results obtained are in Table II.

[1] = system: level of serous corticosterone; assay: Activity on serous level of corticosterone after stress from noise; assay type: in vivo; details: Rattus norvegicus, 1 h; rats, oral, stress from noise (90 decibels) one hour after dosing; read-out: DE50 (dose which reduced the increase in the level of serous corticosterone by 50%)
Protocol: C. Activity on serous level of corticosterone after stress from noise.
Groups of 5 rats were formed the day before the test and placed in a quiet room. The compounds were administered orally the following day between 8 and 9 o'clock in the morning. One hour afterwards, stress was applied which consisted of taking the animals from the cage and placing them in a room where a radio was playing loudly (90 decibels), then half an hour later, giving them an intraperitoneal puncture without injection. Ten minutes after this, the rats were anesthetized with halothane and samples of blood were taken by decapitation. The levels of serous corticosterone were then determined.
The results are expressed in DE50, that is to say in a dose of the compound tested which reduced the increase in the level of serous corticosterone by 50% in animals treated in comparison with the control animals. The results were DE50 in mg/kg of <50 and <100 for the compounds of Examples 2 and 4, respectively. Stress was less noticeable in the treated animals and those animals had therefore a degree of anxiety less than that of the control animals.

Structure (SMILES) | IC50 (benzodiazepine receptors) [µM] | LD0 (maximum dose not provoking any mortality in 8 days) (mice) [mg/kg] | ED50 [1] [mg/kg]
O=c1c2cnc3ccccc3c2on1-c1ccccc1 [Example 1, 2-phenylisoxazolo(4,5-c)quinolin-3-(2H)-one] | 0.12 | ≥ 400 | –
O=c1c2cnc3ccc(F)cc3c2on1-c1ccccc1 [Example 2, 8-fluoro-2-phenylisoxazolo(4,5-c)quinolin-3-(2H)-one] | 0.4 | ≥ 400 | < 50
COc1ccc2c(c1)ncc1c(=O)n(-c3ccccc3)oc12 [Example 3, 7-methoxy-2-phenylisoxazolo(4,5-c)quinolin-3-(2H)-one] | – | ≥ 200 | –
COc1ccc2ncc3c(=O)n(-c4ccccc4)oc3c2c1 [Example 4, 8-methoxy-2-phenylisoxazolo(4,5-c)quinolin-3-(2H)-one] | 2.46 | 200 | < 100
O=c1c2cnc3ccc(C(F)(F)F)cc3c2on1-c1ccccc1 [Example 5, 8-trifluoromethyl-2-phenylisoxazolo(4,5-c)quinolin-3-(2H)-one] | – | ≥ 200 | –
O=c1c2cnc3ccc(Cl)cc3c2on1-c1ccccc1 [Example 7, 8-chloro-2-phenylisoxazolo(4,5-c)quinolin-3-(2H)-one] | – | ≥ 100 | –
